Reference: patent publication US12692232B2, “Indole carboxamide compound, preparation therefor and use thereof” (NANJING RUISHUNING MEDICAL TECHNOLOGY CO., LTD., priority 2021, dated 2026)

Tested on: rat model of pulmonary hypertension induced by monocrotaline
Assay: Rat model of pulmonary hypertension induced by monocrotaline
Type: in vivo
Settings: for reduction of TNF-α levels compared with the MCT model: 25 mg/kg; for RV/(LV + S): MCT model 0.45 ± 0.03; for TNF-α in lung tissue: MCT model 0.94 ± 0.07; for mPAP: MCT model 33.7 ± 4.3; for small pulmonary artery lesions compared with the model group (histopathology, H&E): treatment groups
Procedure: The preventive effect of the compounds of the present invention (as exemplified by compound 1-1 obtained in Example 1) on pulmonary hypertension was determined using a rat model of pulmonary hypertension induced by monocrotaline. The method was as follows:
Grouping of animals: 70 male SD rats with weigh of 200±20 g were randomly divided into 7 groups, i.e., a normal control group, a monocrotaline (MCT) model group, a treatment group of low-dose compound 1-1 (10 mg/kg) (MCT), a treatment group of medium-dose compound 1-1 (25 mg/kg) (MCT), a treatment group of high-dose compound 1-1 (50 mg/kg) (MCT), a treatment group of medium-dose indole analogue 3-[(1-methyl-1H-indole-2-carbonyl)amino]propionic acid (25 mg/kg) disclosed in CN2019107285315 (MCT), and a sildenafil group (150 mg/kg) (MCT), with 10 rats in each group.
Experimental procedure: MCT was prepared as a 2% solution with a mixture of ethanol and saline (2:8) and the solution was injected intraperitoneally once at a dose of 60 mg/kg body weight in all groups except the normal control group. Each rat in the normal control group was injected intraperitoneally once with a solution prepared from ethanol and saline in a volume ratio of 2:8. Compound 1-1 obtained in Example 1, the indole analogue 3-[(1-methyl-1H-indole-2-carbonyl)amino]propionic acid disclosed in CN2019107285315, or the positive drug sildenafil was administered by gavage to the mice in the treatment groups on the day of modelling, and saline was administered by gavage to the mice in the normal control group and the MCT model group. The drugs were administered by gavage once a day for 28 days until 12 hours before test.
Determination of hemodynamic indexes: a polyethylene plastic microcatheter filled with heparin solution (0.9% sodium chloride solution+10 U/mL heparin) was inserted into the right external jugular vein of a rat, and the other end of the microcatheter was connected to a miniature pressure transducer to monitor the pressure changes. […] After 30 minutes of stabilization, the POWERLAB multi-channel intelligent physiological signal acquisition and recording system was applied to acquire, record and analyze the indexes.
Determination of the index of right ventricular (RV) hypertrophy: at the end of the experiment, the heart was removed by dissection of the thorax and the atrial tissue was cut off. The right ventricle (RV), left ventricle (LV), and interventricular septum (S) were isolated along the edge of the interventricular septum, and the RV, LV, and S were weighed after absorbing water with filter paper and the ratio RV/(LV+S) was used to reflect the degree of RV hypertrophy.
Pathological examination of pulmonary vessels: tissue blocks were taken from the same site in the lower lobe of the right lung and fixed in 10% neutral formaldehyde (pH=7.4) for 2 days. Routine paraffin embedding, serial sections, H&E staining and light microscopy were performed to observe morphological changes in small pulmonary arteries.
Effect on inflammatory factors in lung tissue: Lung tissues were collected from each group of rats, homogenates of lung tissue were prepared and centrifuged and supernatants were collected. The protein level in the supernatant was determined by Coomassie brilliant blue method, and tumor necrosis factor-α (TNF-α) in rats was determined by an ELISA kit (Beijing 4A Biotech Co., Ltd.). […]

[1] = MCT + 25 mg/kg gavage once a day 28 days

Row | Structure (SMILES) | reduction of TNF-α levels compared with the MCT model | RV/(LV + S) (MCT + 25 mg/kg gavage 28 days) | TNF-α in lung tissue (MCT + 25 mg/kg gavage 28 days) | mPAP [1] | small pulmonary artery lesions compared with the model group (histopathology, H&E) | RV/(LV + S) (MCT + 10 mg/kg gavage 28 days) | TNF-α in lung tissue (MCT + 10 mg/kg gavage 28 days) | mPAP (MCT + 10 mg/kg gavage once a day 28 days) | RV/(LV + S) (MCT + 50 mg/kg gavage 28 days) | TNF-α in lung tissue (MCT + 50 mg/kg gavage 28 days) | mPAP (MCT + 50 mg/kg gavage once a day 28 days)
1 | Cn1c(C(=O)NCCC(=O)O)cc2ccccc21 [3-[(1-methyl-1H-indole-2-carbonyl)amino]propionic acid, reference compound] | 37.2% | 0.38 ± 0.04 | 0.59 ± 0.07 g/g protein | 28.9 ± 3.4 mmHg | significantly reduced |  |  |  |  |  | 
2 | CC(=O)OCCCNC(=O)c1c(C=O)c2ccccc2n1C [compound 1-1, propyl 3-[(3-formyl-1-methyl-1H-indole-2-carbonyl)amino]acetate] | 58.5% | 0.31 ± 0.04 | 0.39 ± 0.05 g/g protein | 25.8 ± 2.5 mmHg | significantly reduced | 0.37 ± 0.04 | 0.65 ± 0.08 g/g protein | 26.0 ± 2.8 mmHg | 0.28 ± 0.03 | 0.34 ± 0.05 g/g protein | 20.3 ± 3.0 mmHg
